Data published in US7976863B2, “Biomedical devices with antimicrobial coatings” (priority 2002, dated 2011).
Ends that are not written are not given here.

Assays:
Type in all cases: cell-based
P. aeruginosa 15442 [1] = test: MIC in solution (tube/microtitre turbidity); settings: MIC, peptide in solution, 18 hours at 35° C.
P. aeruginosa 6294 [2] = settings: for minimum concentration required to inhibit bacterial growth, P.a 6284: MIC, peptide in solution, 18 hours at 35° C.
Description: (§1) To assess the effect of cationic proteins/peptides in solution against bacterial cells, Psudomonas aeruginosa 6294 and Staphylacoccus aureus 31 cells were grown as for 18 hours in Tryptone Soya Broth (TSB) at 35° C. The cells were then harvested by centrifugation and washed twice in phosphate buffered saline (PBS; NaCl 8 g/l; KCl 0.2 g/l; Na2HPO4 1.15 g/l; KH2PO4 0.2 g/l). The cells were then re-suspended to OD 0.1 at 660 nm in PBS. The cationic peptide was serially diluted from 1 mg/ml and dilutions were added to wells in a 96 well microtitre plate or into 5 ml disposable test-tubes. Controls were bacteria without peptides. Bacteria were incubated for 18 hours at 35° C. and turbidity was measured at 660 nm. A lack of turbidity in the test-tube corresponding to the peptide dilution was considered to be the minimum inhibitory concentration (“MIC”).

S. aureus 31 [3] = test: MIC in solution (tube/microtitre turbidity); settings: MIC, peptide in solution, 18 hours at 35° C.
Description: as §1

S. aureus CK5 [4] = test: MIC in solution (tube/microtitre turbidity); settings: MIC, peptide in solution, 18 hours at 35° C.
S. aureus CK5 [5] = test: Viable counts of bacteria adhered to peptide-adsorbed Etafilcon A lenses; settings: 500 μg/lens adsorbed on Etafilcon A lens, vs uncoated control lens
Description: (§2) For conducting viable counts, Etafilcon A lenses were removed from the manufacturers vials, washed three times in 1 ml PBS, dried and then coated by pipetting 500 μg L-Melimine onto the contact lenses (melimine was dissolved in […] and air dried onto contact lenses) overnight at ambient temperature in a fume hood. Lenses were rehydrated in PBS for 10 minutes and 0.5 ml of 1×10^8 bacterial cells/ml, including gram-positive S. aureus and gram-negative P. aeruginosa were added to the lenses. After incubation at ambient temperature for either 10 min or 5 hours, the lenses were washed three times in PBS to remove non-adherent or loosely adherent bacteria. Lenses were then homogenized using tissue homogenizer and 1 ml PBS until lens disintegration (about 1-2 minutes). Serial dilutions were then made according to the technique of Miles and Misra and aliquots (20 μL) plated out on nutrient agar. After incubation overnight at 37° C., viable bacteria were determined and results expressed as colony forming units/mm^2 after calculation of the surface area of the lens (approximately 310 mm^2). The effects are calculated based upon comparison to adhesion control lens that was not coated with cationic protein/peptide before bacterial adhesion testing.
(§3) Stock solutions (50 mg/ml) were prepared containing the L-Protattin in distilled water. 500 μg of the stock solution was adsorbed to a contact lens made from Etafilcon A as for L-melamine in Example 2 for 18 hours at ambient temperature in a fume hood. The subsequent experimental details are as described in Example 2, above and viable bacteria was measured.

P. aeruginosa 15442 [6] = test: as above; settings: 500 μg/lens adsorbed on Etafilcon A lens, vs uncoated control lens
Description: as §2, §3

P. aeruginosa 6294 [7] = test: as above; settings: 500 μg/lens adsorbed on Etafilcon lens, vs uncoated control lens
Description: as §2
(§4) Etafilcon lenses, commercially available from Johnson & Johnson as ACUVUE® Brand contact lenses) were soaked as in Example 2, above, except that the L-melimine concentration was varied: 125 μg, 250 μg or 500 μg/lens. After absorption of L-Melimine onto the hydrogel polymer, the lenses were rehydrated with PBS, and exposed to S. aureus or P. saeruginosa for either 10 minutes or five hours, as described in Example 2. After exposure, the polymer was evaluated for numbers of microorganisms the standard Miles and Misra plate count assay.
as §3
(§5) Contact lenses were coated and dried (as in Example 2) and D-Melimine applied at a concentration of either 250 μg per lens or 500 μg per lens. D-melimine was made using D-amino acids as for L-melimine using standard peptide synthesis techniques (e.g. Fmoc). Assays for measuring inhibition of bacterial adhesion were performed as in Example 2.

S. aureus 31 [8] = test: as above; settings: 500 μg/lens adsorbed on Etafilcon lens, vs uncoated control lens
Description: as §2, §4, §3, §5

sheep red blood cells = test: Lysis of sheep red blood cells; settings: 37° C. for 4 h, various concentrations
Description: FIG. 1 is a graph showing the % lysis sheep red blood cells relative to water for various peptides.
(§6) For in vitro cytotoxic testing, solutions of L-Melimine were prepared in PBS (500 μg/ml, 250 μg/ml, 125 μg/ml and 62.5 μg/ml). Solutions were then diluted 1:3 in tissue culture media (EMEM) and added to murine L929 cells for 48 hours. Cells are rinsed in saline then harvested using 0.25% trypsin for 3-5 minutes at ambient temperature. 1 ml of saline is then added to cells and trypsin mixture, a 500 μl aliquot is added to 19.5 ml of saline and counted in a coulter counter in triplicate. Results are compared to unperturbed cultures as well as positive (cyotoxic) controls. Results are expressed as percentage of non-viable cells (100-number of cells in sample/number of cells in unperturbed cells×100). In addition, the ability of the peptides to lyze sheep red blood cells was examined. The sheep red blood cells were washed and resuspended in PBS. Peptides at various concentrations were added to the red blood cells and incubated at 37° C. for 4 h. 100% lysis was obtained using distilled water and 0% lysis was obtained using PBS. Lysis was measured by measuring the amount of haemoglobin released into the PBS after centrifugation to remove whole red blood cells.

P. aeruginosa 6294 [9] = test: Heat stability study: inhibition of growth in solution after autoclaving; settings: 1000 μg/ml in PBS mixed with equal volume of bacteria
Description: (§7) A heat stability study was conducted to evaluate whether post-exposure of the L-Melimine to autoclaving would alter the ability of the peptide to prevent bacterial growth.
(§8) Bacteria (P. aeruginosa 6294 and S. aureus 31) were grown for 18 hours at 35° C. in TSB, then washed twice in PBS. The bacteria were resuspended in PBS to an optical density of 0.1 at 660 nm. L-Melimine was dissolved in PBS to a concentration of 1000 μg/ml and autoclaved at 121° C. for 15 minutes. Equal volumes of bacterial suspension and L-Melimine were then added together and incubated at 35° C. for periods of up to 72 hours. Controls were non-autoclaved L-Melimine. After 24, 48 and 72 hours, aliquots of the bacteria/L-Melimine solutions were removed and the number of viable bacteria were counted using the standard Miles and Misra plate count assay.

S. aureus 31 [10] = test: as above; settings: 1000 μg/ml in PBS mixed with equal volume of bacteria
Description: as §7, §8

murine L929 cells = test: In vitro cytotoxic testing; settings: for % cell inhibition: 48 hours
Description: as §6

S. aureus = test system: S. aureus
Description: as §1
(§9) L-Melimine was evaluated to determine its potential to induce resistance in P. aeruginosa and S. aureus. Prior to L-Melimine exposure, MICs of both strains were determined as in Example 1. […] Bacteria were grown overnight in TSB. Bacteria were inoculated 1:100 into fresh TSB containing sub-inhibitory levels of L-Melimine and incubated overnight. Bacteria from the broth containing sub-inhibitory levels (column 2, Table 9) were then re-incubated in fresh TSB with the same concentration of L-Melimine. This was repeated for 30 consecutive days. After passaging, a MIC for the bacteria from the last passage was determined. Any increase in MIC would indicate a potential for bacteria to become resistant.

P. aeruginosa = test system: P. aeruginosa
Description: as §1, §9

[11] = Autoclaved at 121° C. for 15 minutes
[12] = Treatment None (non-autoclaved)

## RPRVSRRRRRRGGRRRR [Protamine (1-17), 1-17 segment of protamine, segment B]
P. aeruginosa 15442 [1]
  minimum concentration required to inhibit bacterial growth, P.a 15442: R (R = resistant, highest concentration of peptide = 1000 ug/Ml)
P. aeruginosa 6294 [2]
  minimum concentration required to inhibit bacterial growth, P.a 6284: R (R = resistant, highest concentration of peptide = 1000 ug/Ml)
S. aureus 31 [3]
  minimum concentration required to inhibit bacterial growth, S.a. 31: R (R = resistant, highest concentration of peptide = 1000 ug/Ml)
S. aureus CK5 [4]
  minimum concentration required to inhibit bacterial growth, S.a. CK5: 1000 µg/mL

## TLISWIKNKRKQ [Mellitin (15-26), 15-26 segment of mellitin, segment A]
P. aeruginosa 15442 [1]
  minimum concentration required to inhibit bacterial growth, P.a 15442: R (R = resistant, highest concentration of peptide = 1000 ug/Ml)
P. aeruginosa 6294 [2]
  minimum concentration required to inhibit bacterial growth, P.a 6284: R (R = resistant, highest concentration of peptide = 1000 ug/Ml)
S. aureus 31 [3]
  minimum concentration required to inhibit bacterial growth, S.a. 31: R (R = resistant, highest concentration of peptide = 1000 ug/Ml)
S. aureus CK5 [4]
  minimum concentration required to inhibit bacterial growth, S.a. CK5: R (R = resistant, highest concentration of peptide = 1000 ug/Ml)

## PRRRRSSSRPVRRRRRPRVSRRRRRRGGRRRR [Protamine, full-length protamine comparison]
P. aeruginosa 6294 [2]
  minimum concentration required to inhibit bacterial growth, P.a 6284: R (R = resistant, highest concentration of peptide = 1000 ug/Ml)
S. aureus 31 [3]
  minimum concentration required to inhibit bacterial growth, S.a. 31: R (R = resistant, highest concentration of peptide = 1000 ug/Ml)

## RPRVSRRRRRRGGRRRRTLISWIKNKRKQ (RPRVSRRRRRRGGRRRRTLISWIKNKRKQ) [Prottatin]
P. aeruginosa 15442 [1]
  minimum concentration required to inhibit bacterial growth, P.a 15442: 1000 µg/mL
P. aeruginosa 6294 [2]
  minimum concentration required to inhibit bacterial growth, P.a 6284: 500 µg/mL
S. aureus CK5 [5]
  % reduction at 10 min: 6 ± 62 (7) %
  % reduction at 5 hrs: 3 ± 25 (7) %
P. aeruginosa 15442 [6]
  % reduction at 10 min: 94 ± 4 (8) %
  % reduction at 5 hrs: 63 ± 32 (7) %
S. aureus 31 [3]
  minimum concentration required to inhibit bacterial growth, S.a. 31: 1000 µg/mL
S. aureus CK5 [4]
  minimum concentration required to inhibit bacterial growth, S.a. CK5: 500 µg/mL
P. aeruginosa 6294 [7]
  % reduction at 10 min: 97 ± 5 (6) %
  % reduction at 5 hrs: 57 ± 39 (6) %
S. aureus 31 [8]
  % reduction at 10 min: 64 ± 18 (6) %
  % reduction at 5 hrs: 43 ± 33 (6) %

## CC[C@H](C)[C@H](NC(=O)CN)C(=O)NCC(=O)N[C@@H](C)C(=O)N[C@H](C(=O)N[C@@H](CC(C)C)C(=O)N[C@@H](CCCCN)C(=O)N[C@H](C(=O)N[C@@H](CC(C)C)C(=O)N[C@H](C(=O)N[C@H](C(=O)NCC(=O)N[C@@H](CC(C)C)C(=O)N1CCC[C@H]1C(=O)N[C@@H](C)C(=O)N[C@@H](CC(C)C)C(=O)N[C@H](C(=O)N[C@@H](CO)C(=O)N[C@@H](Cc1c[nH]c2ccccc12)C(=O)N[C@H](C(=O)N[C@@H](CCCCN)C(=O)N[C@@H](CCCNC(=N)N)C(=O)N[C@@H](CCCCN)C(=O)N[C@@H](CCCNC(=N)N)C(=O)N[C@@H](CCC(N)=O)C(=O)N[C@@H](CCC(N)=O)C(N)=O)[C@@H](C)CC)[C@@H](C)CC)[C@@H](C)O)[C@@H](C)O)C(C)C)C(C)C [Mellitin]
P. aeruginosa 6294 [2]
  minimum concentration required to inhibit bacterial growth, P.a 6284: R (R = resistant, highest concentration of peptide = 1000 ug/Ml)
S. aureus 31 [3]
  minimum concentration required to inhibit bacterial growth, S.a. 31: 15 µg/mL
Sheep red blood cells
  hemolysis of red blood cells (FIG. 1, % lysis relative to water): extensive hemolysis

## TLISWIKNKRKQRPRVSRRRRRRGGRRRR [Melimine, TLISWIKNKRKQRPRVSRRRRRRGGRRRR]
P. aeruginosa 6294 [9]; [11]
  % inhibition of growth @ 24 hours: 100 (3) %
  % inhibition of growth @ 48 hours: 100 (3) %
  % inhibition of growth @ 72 hours: 100 (2) %
P. aeruginosa 6294 [9]; [12]
  % inhibition of growth @ 24 hours: 100 (5) %
  % inhibition of growth @ 48 hours: 100 (3) %
  % inhibition of growth @ 72 hours: 100 (2) %
S. aureus 31 [10]; [11]
  % inhibition of growth @ 24 hours: 100 (3) %
  % inhibition of growth @ 48 hours: 100 (3) %
  % inhibition of growth @ 72 hours: 99 (2) %
S. aureus 31 [10]; [12]
  % inhibition of growth @ 24 hours: 100 (5) %
  % inhibition of growth @ 48 hours: 100 (3) %
  % inhibition of growth @ 72 hours: 99 (2) %
Murine L929 cells; 62.5 μg/ml solution in PBS diluted 1:3 in EMEM
  % cell inhibition: 20%
Murine L929 cells; 125 μg/ml solution in PBS diluted 1:3 in EMEM
  % cell inhibition: 8%
Murine L929 cells; 250 μg/ml solution in PBS diluted 1:3 in EMEM
  % cell inhibition: 26%
Murine L929 cells; 500 μg/ml solution in PBS diluted 1:3 in EMEM
  % cell inhibition: 44%
Murine L929 cells; at 500 μg/ml
  cytotoxicity (in words): marginally cytotoxic
Murine L929 cells; at all other concentrations (250, 125, 62.5 μg/ml)
  cytotoxicity (in words): non-cytotoxic
P. aeruginosa 6294 [2]; text summary of Table 1, highest concentration used
  MIC, P. aeruginosa resistant up to: > 1000 µg/mL
Sheep red blood cells
  hemolysis of red blood cells (FIG. 1, % lysis relative to water): least amount of hemolysis of any peptide/protein
S. aureus; after 30 consecutive days passage at 30 μg/ml
  MIC post-passage: 63 µg/mL
S. aureus; procedure of Example 1
  MIC prior to passage: 125 µg/mL
P. aeruginosa; after 30 consecutive days passage
  MIC post-passage: 4000 µg/mL
P. aeruginosa; starting concentration raised to 15 mg/ml, procedure of Example 1
  MIC prior to passage: 4000 µg/mL
